Values quoted from earlier work as cited in PMC7530097 (Chemical communications (Cambridge, England), 2020).

How the values were obtained:
AgrC = settings: ref [25]
[1] = biological target: Group-II agr subgroup of S. aureus (Staphylococcus aureus, UniProt O33587); settings: read-out: IC50 (95% CI) Group-II; β-lactamase reporter cell assay; ref [6]
[2] = biological target: Group-III agr subgroup of S. aureus (Staphylococcus aureus, UniProt O33590); settings: read-out: IC50 (95% CI) Group-III; β-lactamase reporter cell assay; ref [6]

Row | Substance | inhibition of AgrC (AgrC) | IC50 [1] | IC50 [2]
1 | Solonamide B | competitively inhibit AgrC |  | 
2 | AIP-I |  | 25 nM | 3 nM
